Measurements published in patent US20120029187A1, “HALOALKYLSULFONANILIDE DERIVATIVE” (Nissan Chemical Industries, Ltd., priority 2009, published 2012).

Key:
Assay type in all cases: in vivo
ducksalad [1] = test: Test Example 2: herbicidal effects during the vegetation period under submerged conditions; conditions: treatment during the vegetation period under submerged conditions; dose 2.52 g/a
How it was run: (§1)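 Barnyardgrass, bulrush and ducksalad were co-sown in alluvial soil flooded to 4 cm and grown in a greenhouse at 25 to 30° C. At the 1- or 2-leaf stage, water-diluted emulsifiable concentrates went onto the water surface at set doses (g/a). Herbicidal effect was scored three weeks later on a graded scale.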

barnyardgrass [2] = test: as above; conditions: treatment during the vegetation period under submerged conditions; dose 2.52 g/a
How it was run: as §1

bulrush [3] = test: as above; conditions: treatment during the vegetation period under submerged conditions; dose 2.52 g/a
How it was run: as §1

transplanted rice = test: Test Example 1: preemergence treatment under submerged conditions, effect on crop; conditions: dose 2.52 g/a
How it was run: (§2)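 Score 0–5 by mortality (5: ≥90%; 0: <5%), read 3 weeks post-application. Paddy-type cups: alluvial soil under 4 cm water, weeds seeded plus transplanted 2.5-leaf rice; diluted EC dosed onto water surface same day as sowing, g/a basis; greenhouse 25 to 30° C.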

ducksalad [4] = test: Test Example 1: herbicidal effects in preemergence treatment under submerged conditions; conditions: dose 2.52 g/a
How it was run: as §2

barnyardgrass [5] = test: as above; conditions: dose 2.52 g/a
How it was run: as §2

bulrush [6] = test: as above; conditions: dose 2.52 g/a
How it was run: as §2

beadstraw [7] = test: Test Example 3: herbicidal effects in soil treatment; conditions: dose 3.2 g/a
How it was run: (§3)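 Seeds were sown in sterilized diluvial soil and covered with about 1.5 cm of soil. Compounds, formulated as emulsifiable concentrates and diluted with water, were sprayed evenly over the soil surface at set doses in g/a. Herbicidal effect was scored on a rating scale three weeks later.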

wild oat [8] = test: as above; conditions: dose 3.2 g/a
How it was run: as §3

redroot pigweed [9] = test: as above; conditions: dose 3.2 g/a
How it was run: as §3

posumbu knotweed [10] = test: as above; conditions: dose 3.2 g/a
How it was run: as §3

giant foxtail [11] = test: as above; conditions: dose 3.2 g/a
How it was run: as §3

common chickweed [12] = test: as above; conditions: dose 3.2 g/a
How it was run: as §3

velvetleaf [13] = test: as above; conditions: dose 3.2 g/a
How it was run: as §3

barnyardgrass [14] = test: as above; conditions: dose 3.2 g/a
How it was run: as §3

large crabgrass [15] = test: as above; conditions: dose 3.2 g/a
How it was run: as §3

Italian ryegrass [16] = test: as above; conditions: dose 3.2 g/a
How it was run: as §3

common lambsquater [17] = test: as above; conditions: dose 3.2 g/a
How it was run: as §3

common ragweed [18] = test: as above; conditions: dose 3.2 g/a
How it was run: as §3

water foxtail [19] = test: as above; conditions: dose 3.2 g/a
How it was run: as §3

beadstraw [20] = test: Test Example 4: herbicidal effect in foliage treatment; conditions: dose 3.2 g/a, three weeks after the application
How it was run: (§4)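 Sowing in sterilized diluvial soil, ~1.5 cm cover; growth 14 d, 25–30° C greenhouse; foliar spray of water-diluted EC at predetermined g/a; scoring 3 wk later on graded scale.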

wild oat [21] = test: as above; conditions: dose 3.2 g/a, three weeks after the application
How it was run: as §4

redroot pigweed [22] = test: as above; conditions: dose 3.2 g/a, three weeks after the application
How it was run: as §4

posumbu knotweed [23] = test: as above; conditions: dose 3.2 g/a, three weeks after the application
How it was run: as §4

giant foxtail [24] = test: as above; conditions: dose 3.2 g/a, three weeks after the application
How it was run: as §4

common chickweed [25] = test: as above; conditions: dose 3.2 g/a, three weeks after the application
How it was run: as §4

velvetleaf [26] = test: as above; conditions: dose 3.2 g/a, three weeks after the application
How it was run: as §4

barnyardgrass [27] = test: as above; conditions: dose 3.2 g/a, three weeks after the application
How it was run: as §4

large crabgrass [28] = test: as above; conditions: dose 3.2 g/a, three weeks after the application
How it was run: as §4

Italian ryegrass [29] = test: as above; conditions: dose 3.2 g/a, three weeks after the application
How it was run: as §4

common lambsquater [30] = test: as above; conditions: dose 3.2 g/a, three weeks after the application
How it was run: as §4

common ragweed [31] = test: as above; conditions: dose 3.2 g/a, three weeks after the application
How it was run: as §4

water foxtail [32] = test: as above; conditions: dose 3.2 g/a, three weeks after the application
How it was run: as §4

With `CCOC(=O)N(c1ccccc1CN1COCN(C)C1=O)S(=O)(=O)C(F)(F)F` [IV-2] the “C: ducksalad, herbicidal effect (evaluation scale 0-5)” value (“C: ducksalad, herbicidal effect” below) (ducksalad [1]) was 4 (mortality of at least 70% and less than 90%), the “A: barnyardgrass, herbicidal effect (evaluation scale 0-5)” value (barnyardgrass [2]) was 5 (mortality of 90% or above (nearly complete death)) and the “B: bulrush, herbicidal effect (evaluation scale 0-5)” value (“B: bulrush, herbicidal effect” for short) (bulrush [3]) was 5 (mortality of 90% or above (nearly complete death)). For the same compound, the “a: transplanted rice, effect on crop (evaluation scale 0-5)” value (transplanted rice) was 0 (mortality of less than 5% (almost ineffective)), the “C: ducksalad, herbicidal effect” value (ducksalad [4]) was 3 (mortality of at least 40% and less than 70%) and the “A: barnyardgrass, herbicidal effect (evaluation scale 0-5)” value (barnyardgrass [5]) was 5 (mortality of 90% or above (nearly complete death)). For the same compound, the “B: bulrush, herbicidal effect” value (bulrush [6]) was 5 (mortality of 90% or above (nearly complete death)), the “herbicidal effect, O: beadstraw” value (beadstraw [7]) was 0 (mortality of less than 5% (almost ineffective)) and the “herbicidal effect, F: wild oat” value (wild oat [8]) was 0 (mortality of less than 5% (almost ineffective)). For the same compound, the “herbicidal effect, K: redroot pigweed” value (redroot pigweed [9]) was 0 (mortality of less than 5% (almost ineffective)), the “herbicidal effect, M: posumbu knotweed” value (posumbu knotweed [10]) was 0 (mortality of less than 5% (almost ineffective)) and the “herbicidal effect, E: giant foxtail” value (giant foxtail [11]) was 4 (mortality of at least 70% and less than 90%). The “herbicidal effect, N: common chickweed” value (common chickweed [12]) was 0 (mortality of less than 5% (almost ineffective)), the “herbicidal effect, I: velvetleaf” value (velvetleaf [13]) was 2 (mortality of at least 20% and less than 40%) and the “herbicidal effect, A: barnyardgrass” value (barnyardgrass [14]) was 5 (mortality of 90% or above (nearly complete death)). For the same compound, the “herbicidal effect, D: large crabgrass” value (large crabgrass [15]) was 5 (mortality of 90% or above (nearly complete death)), the “herbicidal effect, H: Italian ryegrass” value (Italian ryegrass [16]) was 2 (mortality of at least 20% and less than 40%) and the “herbicidal effect, L: common lambsquater” value (common lambsquater [17]) was 0 (mortality of less than 5% (almost ineffective)). The “herbicidal effect, J: common ragweed” value (common ragweed [18]) was 0 (mortality of less than 5% (almost ineffective)), the “herbicidal effect, G: water foxtail” value (water foxtail [19]) was 5 (mortality of 90% or above (nearly complete death)) and the “O: beadstraw, herbicidal effect” value (beadstraw [20]) was 0 (mortality of less than 5% (almost ineffective)). For the same compound, the “F: wild oat, herbicidal effect” value (wild oat [21]) was 0 (mortality of less than 5% (almost ineffective)), the “K: redroot pigweed, herbicidal effect” value (redroot pigweed [22]) was 0 (mortality of less than 5% (almost ineffective)) and the “M: posumbu knotweed, herbicidal effect” value (posumbu knotweed [23]) was 0 (mortality of less than 5% (almost ineffective)). The “E: giant foxtail, herbicidal effect” value (giant foxtail [24]) was 3 (mortality of at least 40% and less than 70%), the “N: common chickweed, herbicidal effect” value (common chickweed [25]) was 0 (mortality of less than 5% (almost ineffective)) and the “I: velvetleaf, herbicidal effect” value (velvetleaf [26]) was 3 (mortality of at least 40% and less than 70%). The “A: barnyardgrass, herbicidal effect” value (barnyardgrass [27]) was 4 (mortality of at least 70% and less than 90%), the “D: large crabgrass, herbicidal effect” value (large crabgrass [28]) was 5 (mortality of 90% or above (nearly complete death)) and the “H: Italian ryegrass, herbicidal effect” value (Italian ryegrass [29]) was 0 (mortality of less than 5% (almost ineffective)). The “L: common lambsquater, herbicidal effect” value (common lambsquater [30]) was 0 (mortality of less than 5% (almost ineffective)), the “J: common ragweed, herbicidal effect” value (common ragweed [31]) was 1 (mortality of at least 5% and less than 20%) and the “G: water foxtail, herbicidal effect” value (water foxtail [32]) was 5 (mortality of 90% or above (nearly complete death)).

`CN1COCN(Cc2ccccc2N(C(=O)OCCCl)S(=O)(=O)C(F)(F)F)C1=O` [IV-3] was tested, and the “C: ducksalad, herbicidal effect” value (ducksalad [1]) was 4 (mortality of at least 70% and less than 90%), the “A: barnyardgrass, herbicidal effect (evaluation scale 0-5)” value (barnyardgrass [2]) was 5 (mortality of 90% or above (nearly complete death)) and the “B: bulrush, herbicidal effect” value (bulrush [3]) was 5 (mortality of 90% or above (nearly complete death)). For the same compound, the “a: transplanted rice, effect on crop (evaluation scale 0-5)” value (transplanted rice) was 0 (mortality of less than 5% (almost ineffective)), the “C: ducksalad, herbicidal effect” value (ducksalad [4]) was 5 (mortality of 90% or above (nearly complete death)) and the “A: barnyardgrass, herbicidal effect (evaluation scale 0-5)” value (barnyardgrass [5]) was 5 (mortality of 90% or above (nearly complete death)). The “B: bulrush, herbicidal effect” value (bulrush [6]) was 5 (mortality of 90% or above (nearly complete death)), the “herbicidal effect, O: beadstraw” value (beadstraw [7]) was 0 (mortality of less than 5% (almost ineffective)) and the “herbicidal effect, F: wild oat” value (wild oat [8]) was 0 (mortality of less than 5% (almost ineffective)). For the same compound, the “herbicidal effect, K: redroot pigweed” value (redroot pigweed [9]) was 0 (mortality of less than 5% (almost ineffective)), the “herbicidal effect, M: posumbu knotweed” value (posumbu knotweed [10]) was 0 (mortality of less than 5% (almost ineffective)) and the “herbicidal effect, E: giant foxtail” value (giant foxtail [11]) was 3 (mortality of at least 40% and less than 70%). For the same compound, the “herbicidal effect, N: common chickweed” value (common chickweed [12]) was 0 (mortality of less than 5% (almost ineffective)), the “herbicidal effect, I: velvetleaf” value (velvetleaf [13]) was 5 (mortality of 90% or above (nearly complete death)) and the “herbicidal effect, A: barnyardgrass” value (barnyardgrass [14]) was 5 (mortality of 90% or above (nearly complete death)). For the same compound, the “herbicidal effect, D: large crabgrass” value (large crabgrass [15]) was 4 (mortality of at least 70% and less than 90%), the “herbicidal effect, H: Italian ryegrass” value (Italian ryegrass [16]) was 0 (mortality of less than 5% (almost ineffective)) and the “herbicidal effect, L: common lambsquater” value (common lambsquater [17]) was 0 (mortality of less than 5% (almost ineffective)). The “herbicidal effect, J: common ragweed” value (common ragweed [18]) was 0 (mortality of less than 5% (almost ineffective)), the “herbicidal effect, G: water foxtail” value (water foxtail [19]) was 5 (mortality of 90% or above (nearly complete death)) and the “O: beadstraw, herbicidal effect” value (beadstraw [20]) was 0 (mortality of less than 5% (almost ineffective)). The “F: wild oat, herbicidal effect” value (wild oat [21]) was 0 (mortality of less than 5% (almost ineffective)), the “K: redroot pigweed, herbicidal effect” value (redroot pigweed [22]) was 0 (mortality of less than 5% (almost ineffective)) and the “M: posumbu knotweed, herbicidal effect” value (posumbu knotweed [23]) was 0 (mortality of less than 5% (almost ineffective)). For the same compound, the “E: giant foxtail, herbicidal effect” value (giant foxtail [24]) was 3 (mortality of at least 40% and less than 70%), the “N: common chickweed, herbicidal effect” value (common chickweed [25]) was 5 (mortality of 90% or above (nearly complete death)) and the “I: velvetleaf, herbicidal effect” value (velvetleaf [26]) was 3 (mortality of at least 40% and less than 70%). The “A: barnyardgrass, herbicidal effect” value (barnyardgrass [27]) was 4 (mortality of at least 70% and less than 90%), the “D: large crabgrass, herbicidal effect” value (large crabgrass [28]) was 4 (mortality of at least 70% and less than 90%) and the “H: Italian ryegrass, herbicidal effect” value (Italian ryegrass [29]) was 1 (mortality of at least 5% and less than 20%). For the same compound, the “L: common lambsquater, herbicidal effect” value (common lambsquater [30]) was 0 (mortality of less than 5% (almost ineffective)), the “J: common ragweed, herbicidal effect” value (common ragweed [31]) was 1 (mortality of at least 5% and less than 20%) and the “G: water foxtail, herbicidal effect” value (water foxtail [32]) was 5 (mortality of 90% or above (nearly complete death)).
